{"source": "patent US10272045B2", "about": "(priority 2015, dated 2019)", "key": {"[1]": {"conditions": "human, in vivo, cited from earlier work"}, "[2]": {"conditions": "dog, in vivo"}}, "data": [{"compound": "arsenious acid [AsIII]", "values": [{"measurement": "time to peak plasma concentration (end of infusion)", "setting": "[1]; 0.15 mg/kg", "value": 2, "unit": "h"}, {"measurement": "accumulation, Day 25 versus Day 1 of Cycle 1", "setting": "[1]", "value": "~2", "unit": "fold"}, {"measurement": "mean elimination half-life", "setting": "[1]", "value": "10 to 14", "unit": "h"}, {"measurement": "renal clearance", "setting": "[1]", "value": 9, "unit": "L/h"}, {"measurement": "total clearance", "setting": "[1]", "value": 49, "unit": "L/h"}, {"measurement": "volume of distribution (Vss)", "setting": "[1]", "value": 562, "unit": "L"}]}, {"compound": "O=[As]O[As]=O", "note": "(stereo not drawn) [SV100]", "values": [{"measurement": "oral absorption", "setting": "[2]", "value": "very limited absorption"}, {"measurement": "oral bioavailability (F^b %)", "setting": "[2]", "value": "< 10", "unit": "%"}]}, {"compound": "arsenic acid [Asv]", "values": [{"measurement": "level in plasma", "setting": "[1]", "value": "relatively low levels"}]}]}
